Results taken from US20210213010A1, “TLR7/8 AGONISTS AND LIPOSOME COMPOSITIONS” (Torque Therapeutics, Inc., priority 2018, published 2021).
Entries after “also recorded” stand apart in the source; their conditions may differ.

How the values were obtained:
[1] = Remote loading efficiency of small molecules into liposomes (PD-10 size exclusion, HPLC); assay type: physicochemical; conditions: for Remote loading efficiency 1 h (%): drug/lipid ratio 0.10, 1 h; for Remote loading efficiency 3 h (%): drug/lipid ratio 0.10, 3 h
How it was run: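 A lyophilized small-molecule powder (modified TLR agonist) was combined with liposome formulation at the desired drug/lipid ratio and stirred at elevated temperature. At 1 h and 3 h, 100 μL of mixture plus 900 μL buffer (25 mM HEPES, 10 vol % sucrose, pH 7.4) went onto a PD-10 size exclusion column. Ten 1 mL fractions were collected, and HPLC quantified compound in the liposome fractions as a percentage of the amount applied.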

whole human blood [2] = test: IL-6 cytokine expression in stimulated whole human blood (ELISA); assay type: cell-based
Protocol: (§1) This example describes the general procedure used to assess the level of cytokine IL-6 and IL-12p40 expressions upon stimuli of whole human blood with small molecules or small molecules in liposomal formulations F1 and F2. 10 mM DMSO solutions of the small molecules were diluted in RPMI media (RPMI-1640, Sigma Aldrich) with 1% penicillin/streptomycin (p/s). […], of each dilution was transferred to Nunc™ 96-Well Polystyrene Conical Bottom MicroWell™ Plates in duplicates. Blood was drawn from two human donors, diluted in RPMI with 1% p/s and added to each well to reach final concentrations of 10 μM, 1 μM, and 0.1 μM of the small molecules. The plates were incubated at 37° C. in a cell incubator for 24h. The plates were then spun down in a plate centrifuge with 3200 revolutions per minute (rpm) for 10 min before 50 uL of the supernatant was transferred to new 96-well plates. The supernatant samples were subsequently stored at −80° C. until the day of cytokine measurements.
(§2) The level of cytokine expression was measured using either an IL-6 ELISA Kit (RnDSystems, cat #DY206) for IL-6, or an IL-12p40 ELISA Kit (RnDSystems, cat #DY1240) according to the manufacturer's protocols. This general procedure was used to generate the examples 24-33.

RAW-Blue cells = test: NF-κB induction in RAW-Blue reporter cells (RAW 264.7 macrophages, SEAP); assay type: cell-based; conditions: RAW-Blue; sigmoidal 4PL fitting, 24 h
How it was run: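 RAW 264.7 macrophages with NF-κB-inducible SEAP, 100×10^3 cells/well, exposed to compound dilutions (from DMSO stocks in PBS) for 24 h at 37 °C, triplicate. Supernatant SEAP read with QUANTI-Blue at 640 nm after 3–6 h, normalized to DMSO blank; EC50 from 4PL fits.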

[3] = Cytokine/chemokine release kinetics in blood of non-tumor bearing B6D2F1/J mice (Luminex); assay type: in vivo, mouse; conditions: single dose; 4 mg/kg Gdq or 2 mg/kg KRJ2-110 systemic, or loaded PMEL cells; 0-24 hr
Protocol: Spleens and lymphnodes were harvested from PMEL mice (B6. Cg-Thy1^a/Cy Tg(TcraTcrb)8Rest/J, Jackson Labs) and CD8 T cells purified by Mylteni MACS T cell separation kit. PMEL cells were stimulated and expanded on anti-CD3/CD28 coated plates with mouse IL2/IL7/IL21 cytokines and harvested for use. The cytokine/chemokine release profile in non-tumor bearing B6D2F1/J mice (Jackson Labs) was evaluated by injecting: • 20×10^6 PMEL cells alone, 20×10^6 PMEL cells loaded with 2.5 ant-CD45 Ab/liposome, 10% DOTAP, 35% cholesterol, 0.6% DSPE-PEG, POPC liposomes Gardiquimod pH gradient loaded as previously described (˜200 nmol gardiquimod, single dose) • 4 mg/kg Gdq systemic (no PMEL, single dose) • 2 mg/kg KRJ2-110 systemic (no PMEL, single dose)
Blood was drawn at 0, 0.25, 0.5, 1, 2, 4, 6, 10 and 24 hr and plasma was recovered for cytokine/chemokine quantitation using a Luminex kit. […] IP10 and TNFa are commonly used biomarkers for TLR7 agonists in human studies indicating these may be useful biomarkers in clinical studies for T cells loaded with TLR7 agonists.

whole human blood [4] = test: IL-12p40 cytokine expression in stimulated whole human blood (ELISA); assay type: cell-based; conditions: drug/lipid ratio 0.1
Protocol: as §1, §2

B16-F10 tumor [5] = test: B16-F10 tumor model with adoptive cell transfer of PMEL cells (Example 80); assay type: in vivo, mouse; conditions: for Weight of tumor bearing mice: versus HBSS, PMEL alone and PMEL loaded with Gdq liposomes
Protocol: Spleens and lymphnodes were harvested from PMEL mice (B6. Cg-Thy1^a/Cy Tg(TcraTcrb)8Rest/J, Jackson Labs) and CD8 T cells purified by Mylteni MACS T cell separation kit. PMEL cells were stimulated and expanded on anti-CD3/CD28 coated plates with mouse IL2/IL7/IL21 cytokines, harvested and loaded with liposomes for evaluation in vivo. PMEL cells at 50×10^6/mL were incubated with liposomes at 10 mM lipid concentration for 60 minutes at 37 C, washed twice and formulated in HBSS prior to injection into the mice. In vivo study details show below. Briefly, 100 ul of 0.5×10^6 B16-F10 cells formulated in HBSS were injected SubQ (SQ) or intra-dermal (ID) and grown for 9 days prior to treatment. 1 day prior to treatment, 4 mg/mouse of cyclophosphamide (CPX) was injected intraperitoneal (IP) with 200 ul at 20 mg/mL in phosphate buffered saline (PBS). There were 10 mice used per group and all treatments were injected intravenous (IV) via tail vein injection, the groups were as follows: • HBSS alone (single dose) • 20×10^6 PMEL cells/mouse (single dose) • 20×10^6 PMEL cells/mouse backpacked with 2.5 antiCD45 Ab/liposome, 10% DOTAP, 35% cholersterol, 0.6% DSPE-PEG, POPC, pH gradient loaded as previously described with Gardiquimod (˜200 nmol Gardiquimod/mouse, single dose) • 20×10^6 PMEL cells/mouse followed by 4 mg/kg Gardiquimod systemically on day 0 (treatment day, day 6, day 13, day 25 • 20×10^6 PMEL cells/mouse followed by 2 mg/kg KRJ2-110 systemically on day 0 (treatment day), day 6, day 13, day 25

RAW Blue cells = test: Potency of TLR7 agonist compound library in RAW Blue TLR reporter cells; assay type: cell-based; conditions: fold more potent
Protocol: A general synthesis scheme is shown in FIG. 1A according to the procedure by Wu et al. Immunotherapeutic activity of a conjugate of a Toll-like receptor 7 ligand. Proc. Natl. Acad. Sci. 104, 3990-3995 (2007), with some modifications and in good yields. Final derivatization using standard amide bond formation or reductive amination conditions, gave the desired library of 22 compounds divided into two sets (set 1, 1a-1j and set 2, 2a-2j). Next it was evaluated if the synthesized compounds had retained their activity upon derivatization. As benchmarks, the known TLR agonists Gardiquimod (Gdq, TLR7) and Resiquimod (R848, TLR7/8) were used.

[6] = Cryo-TEM of remote loaded liposomes (intraliposomal precipitation); assay type: physicochemical; conditions: remote loaded liposomes, Example 75
Protocol: CryoTEM samples of 3 μL of liposome solution was placed on a lacy carbon 300 mesh copper TEM grid, blotted and plunge frozen in liquid ethane using a FEI Vitrobot Mark IV. Samples were imaged using a FEI Tecnai G2 20 TWIN transmission electron microscope operated at 200 keV in low dose mode with a FEI High-Sensitive (HS) 4 k×4 k Eagle camera.

B16-F10 tumor [7] = test: In vivo immune profiling by flow cytometry in B16-F10 tumor bearing mice (Example 87); parameters: species or system mouse
Protocol: Spleens and lymphnodes were harvested from PMEL mice (B6. Cg-Thy1^a/Cy Tg(TcraTcrb)8Rest/J, Jackson Labs) and CD8 T cells purified by Mylteni MACS T cell separation kit. PMEL cells were stimulated and expanded on anti-CD3/CD28 coated plates with mouse IL2/IL7/IL21 cytokines, harvested and loaded with liposomes for evaluation in vivo. PMEL cells at 50×10^6/mL were incubated with liposomes at 10 mM lipid concentration for 60 minutes at 37 C, washed twice and formulated in HBSS prior to injection into the mice. Briefly, 100 ul of 1×10^6 B16-F10 cells formulated in HBSS were injected SubQ (SQ) and grown for 10 days prior to treatment. 1 day prior to treatment, 4 mg/mouse of cyclophosphamide (CPX) was injected intraperitoneal (IP) with 200 ul at 20 mg/mL in phosphate buffered saline (PBS). There were 10 mice used per group and all treatments were injected intravenous (IV) via tail vein injection, the groups were as follows: • HBSS alone (single dose) • 20×10^6 PMEL cells/mouse (single dose) • 20×10^6 PMEL cells/mouse backpacked with 1.5% Arg3-Chol, 10% DSTAP, 35% cholesterol, 0.5% DSPE-PEG, DSPC, pH gradient loaded as previously described with KRJ2-110 (single dose) • 20×10^6 PMEL cells/mouse followed by 2 mg/kg KRJ2-110 systemically on day 0 (small molecule delivered 1 hr after cell dose)
Blood was sampled at 24 hr, 4 days and 7 days for plasma isolation and cytokine/chemokine characterization by Luminex. Tissues and organs were harvested on day 4 and 7 for analysis by flow cytometry and Luminex.

[8] = amine in conjugation with the aromatic system; cited from earlier work

**Q.** For `CCNCc1nc2c(N)nc3ccccc3c2n1CC(C)(C)O` [Gardiquimod, reference compound], which “Remote loading efficiency 1 h (%)” value ([1]; formulation F1, HEPES) is on record?
**A.** 89%

**Q.** And the “Remote loading efficiency 3 h (%)” value ([1]; formulation F1, HEPES)?
**A.** 92%

**Q.** And the “Remote loading efficiency 1 h (%)” value ([1]; formulation F2, HEPES)?
**A.** 89%

**Q.** What about the “Remote loading efficiency 3 h (%)” value ([1]; formulation F2, HEPES) of the same compound?
**A.** 92%

**Q.** What about the “Expression of IL-6 upon stimulation of whole human blood” value (whole human blood [2]; free small molecule, 10, 1, 0.1 μM, 24 h, two donors) of the same compound?
**A.** induced expression of IL-6 at 10 μM in donor 2

**Q.** What about the “Expression of IL-6 upon stimulation of whole human blood” value (whole human blood [2]; remote loaded in formulation F1, HEPES, drug/lipid ratio 0.1) of the same compound?
**A.** No induction of IL-6 expression

**Q.** And the “Expression of IL-6 upon stimulation of whole human blood” value (whole human blood [2]; remote loaded in formulation F2, HEPES, drug/lipid ratio 0.1)?
**A.** capable of inducing expression of IL-6 at 10 μM; also recorded: capable of inducing expression of IL-6 in both donors; also recorded: the most potent

**Q.** And the EC50 (RAW-Blue cells)?
**A.** 1670 nM

**Q.** What about the “Proinflammatory cytokines such as IFNg, IL12 in blood” value [3] of the same compound?
**A.** significant increase in proinflammatory cytokines

**Q.** What about the “Expression of IL-12p40 upon stimulation of whole human blood” value (whole human blood [4]; remote loaded in formulation F1, HEPES) of the same compound?
**A.** none of the small molecules Gardiquimod, MK087, MK088, and MK089 were capable of inducing expression of IL-12p40

**Q.** What about the “Expression of IL-12p40 upon stimulation of whole human blood” value (whole human blood [4]; remote loaded in formulation F2, HEPES) of the same compound?
**A.** capable of inducing expression of IL-12p40 in one donor at 10 μM

**Q.** And the “Weight of tumor bearing mice” value (B16-F10 tumor [5])?
**A.** more substantial weight loss

**Q.** Which “In vitro potency in a RAW cell assay relative to Gardiquimod” value (RAW Blue cells) does the source give for `COCCOc1nc(N)c2nc(O)n(Cc3ccc(CN)cc3)c2n1` [KRJ2-110, 6-amino-9-(4-(aminomethyl)benzyl)-2-(2-methoxyethoxy)-9H-purin-8-ol] here?
**A.** ~10 ×

**Q.** And the “Crystallization within liposomes (Cryo-TEM)” value [6]?
**A.** crystallizes inside the liposomes

**Q.** What about the “Proinflammatory cytokines such as IFNg, IL12 in blood” value [3] of the same compound?
**A.** significant increase in proinflammatory cytokines

**Q.** What about the “Activation of PMEL T cells in LN” value (B16-F10 tumor [7]; 4 and 7 days after ACT) of the same compound?
**A.** Increases activation of PMEL T cells in LN

**Q.** What about the “Exhaustion of PMEL cells (PD1+/LAG3+)” value (B16-F10 tumor [7]; 4 and 7 days after ACT) of the same compound?
**A.** Slightly increases exhaustion

**Q.** What about the “MHCII expression in the tumor” value (B16-F10 tumor [7]; 4 and 7 days after ACT) of the same compound?
**A.** Increases MHCII expression in the tumor

**Q.** What about the “Monocytic and Granulocytic MDSC density in the tumor” value (B16-F10 tumor [7]; 7 days after ACT) of the same compound?
**A.** Does not markedly affect MDSC

**Q.** And the “Abundance of cDC1 and pDC in the tumor” value (B16-F10 tumor [7]; after ACT)?
**A.** Transiently increases the abundance of cDC1 and pDC

**Q.** And the “Proliferation of PMEL T cells (Ki67)” value (B16-F10 tumor [7]; blood, spleen and tumor, 4 days after ACT)?
**A.** Virtually no effect on PMEL T cell proliferation

**Q.** And the “B16-F10 tumor growth after adoptive cell transfer” value (B16-F10 tumor [5]; PMEL cells plus 2 mg/kg KRJ2-110 or 4 mg/kg Gardiquimod systemically, or liposome loaded PMEL)?
**A.** more efficacious

**Q.** What about the “Weight of tumor bearing mice” value (B16-F10 tumor [5]) of the same compound?
**A.** more substantial weight loss

**Q.** For `CCOCc1nc2c(N)nc3ccccc3c2n1CC(C)(C)O` [R848, Resiquimod, reference compound], which EC50 (RAW-Blue cells) is on record?
**A.** 150 nM

**Q.** And the “pKa of the conjugate acid” value [8]?
**A.** approximately 4
